Source: the supplement of paper PMC4862054

Experiments:
CAL-148 [1] = settings: 72 h
In short: (§1)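 Breast cancer cell lines in 20 µl suspension were seeded onto 384-well plates that already held compound dissolved in 5 µl medium and were incubated for 72 h. Viability was measured by adding 2.5 µl CellTiter-Blue for 2 h at 37 °C and reading fluorescence at 560/590 nm. Each plate was normalised to vehicle and a positive kill control and checked by Z'-factor. EC50 was taken from a fitted percent-inhibition dose-response curve, censored at the highest concentration, and rows with a drug sensitivity score of zero were removed.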

CAL-120 [2] = settings: 72 h
In short: as §1

HCC1937 [3] = settings: 72 h
In short: as §1

MDA-MB-231 [4] = settings: 72 h
In short: as §1

MDA-MB-453 [5] = settings: 72 h
In short: as §1

CAL-148 [6] = test: normalised viability (% of control), CellTiter-Blue; higher = more viable cells (about 100 = DMSO control); settings: incubation time: 72 h
Experimental: (§2)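 DSRT, CellTiter-Blue viability, 72 h incubation. Signal is normalised to DMSO and benzethonium chloride controls. Value is the normalised response at dose 9.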

CAL-51 [7] = test: as above; settings: incubation time: 72 h
Experimental: as §2

CAL-85-1 [8] = test: as above; settings: incubation time: 72 h
Experimental: as §2

DU-4475 [9] = test: as above; settings: incubation time: 72 h
Experimental: as §2

HDQ-P1 [10] = test: as above; settings: incubation time: 72 h
Experimental: as §2

MDA-MB-453 [11] = test: as above; settings: incubation time: 72 h
Experimental: as §2

BT-474 = test: normalised response (% of control), CellTiter-Glo; higher = more viable cells (100 = DMSO, 0 = benzethonium chloride kill control); settings: incubation time: 72 h
In short: (§3)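 Plates were normalised with 0.1 % DMSO as 100 and a positive kill control as 0. Breast cancer cell lines in 20 µl suspension had been seeded into 384-well plates with compound at 5 concentrations in 10-fold steps over a compound-specific 10,000-fold range, incubated 72 h, and read for CellTox Green fluorescence (485/520 nm) followed by CellTiter-Glo luminescence. Each value is the normalised signal at a single concentration.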

BT-549 = test: as above; settings: incubation time: 72 h
In short: as §3

CAL-120 [12] = test: as above; settings: incubation time: 72 h
In short: as §3

CAL-148 [13] = test: as above; settings: incubation time: 72 h
In short: as §3

CAL-51 [14] = test: as above; settings: incubation time: 72 h
In short: as §3

CAL-85-1 [15] = test: as above; settings: incubation time: 72 h
In short: as §3

DU-4475 [16] = test: as above; settings: incubation time: 72 h
In short: as §3

HCC1143 = test: as above; settings: incubation time: 72 h
In short: as §3

HCC1599 = test: as above; settings: incubation time: 72 h
In short: as §3

HCC1937 [17] = test: as above; settings: incubation time: 72 h
In short: as §3

HDQ-P1 [18] = test: as above; settings: incubation time: 72 h
In short: as §3

Hs578T = test: as above; settings: incubation time: 72 h
In short: as §3

MCF-10A = test: as above; settings: incubation time: 72 h
In short: as §3

MDA-MB-231 [19] = test: as above; settings: incubation time: 72 h
In short: as §3

MDA-MB-436 = test: as above; settings: incubation time: 72 h
In short: as §3

MDA-MB-453 [20] = test: as above; settings: incubation time: 72 h
In short: as §3

MDA-MB-468 = test: as above; settings: incubation time: 72 h
In short: as §3

MFM-223 = test: as above; settings: incubation time: 72 h
In short: as §3

SK-BR-3 = test: as above; settings: incubation time: 72 h
In short: as §3

In the case of `COc1cc([C@@H]2c3cc4c(cc3[C@@H](O[C@@H]3O[C@@H]5CO[C@@H](C)O[C@H]5[C@H](O)[C@H]3O)[C@H]3COC(=O)[C@H]23)OCO4)cc(OC)c1O` [Etoposide], the “EC50, CellTiter-Blue viability” value (CAL-148 [1]) is reported as 1130 nM, the “EC50, CellTiter-Blue viability” value (CAL-120 [2]) is reported as 2260 nM and the “EC50, CellTiter-Blue viability” value (HCC1937 [3]) is reported as 3700 nM. For the same compound, the “EC50, CellTiter-Blue viability” value (MDA-MB-231 [4]) was 1020 nM.

With `CNCc1ccc(-c2[nH]c3cc(F)cc4c3c2CCNC4=O)cc1` [Rucaparib] the “EC50, CellTiter-Blue viability” value (CAL-148 [1]) was 7670 nM, the “EC50, CellTiter-Blue viability” value (MDA-MB-453 [5]) was 6180 nM and the “EC50, CellTiter-Blue viability” value (HCC1937 [3]) was 945 nM. The “EC50, CellTiter-Blue viability” value (MDA-MB-231 [4]) was 683 nM.

With `Oc1nc(-c2ccc(C(F)(F)F)cc2)nc2c1CSCC2` [XAV-939] the “EC50, CellTiter-Blue viability” value (MDA-MB-231 [4]) was 2590 nM.

`COc1cc2nccc(Oc3ccc(NC(=O)C4(C(=O)Nc5ccc(F)cc5)CC4)cc3)c2cc1OC` [Cabozantinib] was tested, and the “EC50, CellTiter-Blue viability” value (CAL-148 [1]) was 558 nM and the “EC50, CellTiter-Blue viability” value (MDA-MB-453 [5]) was 874 nM.

`Cc1ccc(C(=O)Nc2ccc(CN3CCN(C)CC3)c(C(F)(F)F)c2)cc1C#Cc1cnc2cccnn12` [Ponatinib] was tested, and the “EC50, CellTiter-Blue viability” value (CAL-148 [1]) was 295 nM, the “EC50, CellTiter-Blue viability” value (MDA-MB-453 [5]) was 282 nM and the “EC50, CellTiter-Blue viability” value (CAL-120 [2]) was 190 nM.

In the case of `Cn1c(Nc2ccc(C(F)(F)F)cc2)nc2cc(Oc3ccnc(-c4ncc(C(F)(F)F)[nH]4)c3)ccc21` [RAF265] (1000 nM), the normalised viability (CAL-148 [6]) is reported as 64.1%, the normalised viability (CAL-51 [7]) is reported as 48% and the normalised viability (CAL-85-1 [8]) is reported as 47.2%. The normalised viability (DU-4475 [9]) was 42.3%, the normalised viability (HDQ-P1 [10]) was 34% and the normalised viability (MDA-MB-453 [11]) was 89.2%.

Compound `COc1cc2nccc(Oc3ccc(NC(=O)C4(C(=O)Nc5ccc(F)cc5)CC4)cc3)c2cc1OC` [Cabozantinib] (1000 nM) has a normalised viability (CAL-148 [6]) of 78.7%, a normalised viability (CAL-51 [7]) of 86.5% and a normalised viability (CAL-85-1 [8]) of 45.1%. The normalised viability (DU-4475 [9]) was 108%, the normalised viability (HDQ-P1 [10]) was 88.5% and the normalised viability (MDA-MB-453 [11]) was 37.1%.

In the case of `CN(N=O)C(=O)N[C@@H](C=O)[C@@H](O)[C@H](O)[C@H](O)CO` [Streptozocin], the “EC50, CellTiter-Blue viability” value (HCC1937 [3]) is reported as 85.3 nM.

`O=C1CCC(N2C(=O)c3ccccc3C2=O)C(=O)N1` (configuration not stated) [Thalidomide] (10000 nM) gave a normalised viability (CAL-148 [6]) of 106%, a normalised viability (CAL-51 [7]) of 90.6% and a normalised viability (CAL-85-1 [8]) of 104%. It also gave a normalised viability (DU-4475 [9]) of 97.5%, a normalised viability (HDQ-P1 [10]) of 105% and a normalised viability (MDA-MB-453 [11]) of 102%.

`CC1(C)NC(=O)N(c2ccc([N+](=O)[O-])c(C(F)(F)F)c2)C1=O` [Nilutamide] (10000 nM) gave a normalised viability (CAL-148 [6]) of 99.8%, a normalised viability (CAL-51 [7]) of 89.4% and a normalised viability (CAL-85-1 [8]) of 90.7%. The normalised viability (DU-4475 [9]) was 97.4%, the normalised viability (HDQ-P1 [10]) was 136% and the normalised viability (MDA-MB-453 [11]) was 106%.

`CN[C@@H]1C[C@H]2O[C@@](C)([C@@H]1OC)n1c3ccccc3c3c4c(c5c6ccccc6n2c5c31)C(=O)N[C@H]4O` [UCN-01] (10000 nM) was tested, and the normalised viability (CAL-148 [6]) was 3.64%, the normalised viability (CAL-51 [7]) was 5.97% and the normalised viability (CAL-85-1 [8]) was 1.96%. The normalised viability (DU-4475 [9]) was 2.14%, the normalised viability (HDQ-P1 [10]) was 2.76% and the normalised viability (MDA-MB-453 [11]) was 2.09%.

`Cn1c(CCCC(=O)O)nc2cc(N(CCCl)CCCl)ccc21` [Bendamustine] (10000 nM) gave a normalised viability (CAL-148 [6]) of 92.4%, a normalised viability (CAL-51 [7]) of 99% and a normalised viability (CAL-85-1 [8]) of 92.9%. For the same compound, the normalised viability (DU-4475 [9]) was 78.6%, the normalised viability (HDQ-P1 [10]) was 113% and the normalised viability (MDA-MB-453 [11]) was 121%.

Compound `Oc1nc(-c2ccc(C(F)(F)F)cc2)nc2c1CSCC2` [XAV-939] (10000 nM) has a normalised viability (CAL-148 [6]) of 76.9%, a normalised viability (CAL-51 [7]) of 89.2% and a normalised viability (CAL-85-1 [8]) of 82.3%. The normalised viability (DU-4475 [9]) was 100%, the normalised viability (HDQ-P1 [10]) was 76.2% and the normalised viability (MDA-MB-453 [11]) was 71.5%.

`CCC1(c2ccc(N)cc2)CCC(=O)NC1=O` (configuration not stated) [Aminoglutethimide] (10000 nM) was tested, and the normalised viability (CAL-148 [6]) was 112%, the normalised viability (CAL-51 [7]) was 85.2% and the normalised viability (CAL-85-1 [8]) was 106%. The normalised viability (DU-4475 [9]) was 97.9%, the normalised viability (HDQ-P1 [10]) was 120% and the normalised viability (MDA-MB-453 [11]) was 81.6%.

Work on `Oc1nc(-c2ccc(C(F)(F)F)cc2)nc2c1CSCC2` [XAV-939] (1000 nM) yielded a normalised response (BT-474) of 79.8%, a normalised response (BT-549) of 91.8% and a normalised response (CAL-120 [12]) of 92%. It also gave a normalised response (CAL-148 [13]) of 89.8%, a normalised response (CAL-51 [14]) of 89.3% and a normalised response (CAL-85-1 [15]) of 105%. For the same compound, the normalised response (DU-4475 [16]) was 92.8%, the normalised response (HCC1143) was 88.8% and the normalised response (HCC1599) was 104%. The normalised response (HCC1937 [17]) was 91.1%, the normalised response (HDQ-P1 [18]) was 101% and the normalised response (Hs578T) was 92.3%. For the same compound, the normalised response (MCF-10A) was 88.8%, the normalised response (MDA-MB-231 [19]) was 76.8% and the normalised response (MDA-MB-436) was 96.7%. The normalised response (MDA-MB-453 [20]) was 91.4%, the normalised response (MDA-MB-468) was 82% and the normalised response (MFM-223) was 96.1%. For the same compound, the normalised response (SK-BR-3) was 84.4%.
